Tests used:
ISC-enriched organoids [1] = assay: Primary screen, 384-well 2.5-D organoid differentiation (ENR+CD, 6 days, Target Selective Inhibitor Library, vs whole-plate median): ATP (CellTiter-Glo 3D, CTG); settings: primary screen; for Dose.FC.CTG (log 2 fold change): vs plate median
ISC-enriched organoids [2] = assay: Primary screen, 384-well 2.5-D organoid differentiation (ENR+CD, 6 days): carbachol-induced lysozyme secretion (LYZ.S); type: cell-based, murine; settings: primary screen, vs plate median
From the text: (§1) High-throughput screening.

ISC-enriched organoids [3] = assay: Primary screen, 384-well 2.5-D organoid differentiation (ENR+CD, 6 days): basal lysozyme secretion (LYZ.NS); type: cell-based, murine; settings: primary screen; for Dose.FC.LYZ.NS (log 2 fold change): vs plate median
From the text: as §1

Structure (SMILES) | Z.CTG (standard z score) (ISC-enriched organoids [1]; Dose 0.08 uM) | Dose.FC.CTG (log 2 fold change) (ISC-enriched organoids [1]; Dose 0.08 uM) | Z.CTG (standard z score) (ISC-enriched organoids [1]; Dose 0.40 uM) | Dose.FC.CTG (log 2 fold change) (ISC-enriched organoids [1]; Dose 0.40 uM) | Z.CTG (standard z score) (ISC-enriched organoids [1]; Dose 2.00 uM) | Dose.FC.CTG (log 2 fold change) (ISC-enriched organoids [1]; Dose 2.00 uM) | Z.CTG (standard z score) (ISC-enriched organoids [1]; Dose 10.00 uM) | Dose.FC.CTG (log 2 fold change) (ISC-enriched organoids [1]; Dose 10.00 uM) | Dose.FC.LYZ.S (log 2 fold change) (ISC-enriched organoids [2]; Dose 0.08 uM) | Dose.FC.LYZ.S (log 2 fold change) (ISC-enriched organoids [2]; Dose 0.40 uM) | Dose.FC.LYZ.S (log 2 fold change) (ISC-enriched organoids [2]; Dose 2.00 uM) | Dose.FC.LYZ.S (log 2 fold change) (ISC-enriched organoids [2]; Dose 10.00 uM) | Z.LYZ.NS (standard z score) (ISC-enriched organoids [3]; Dose 0.08 uM) | Dose.FC.LYZ.NS (log 2 fold change) (ISC-enriched organoids [3]; Dose 0.08 uM) | Z.LYZ.NS (standard z score) (ISC-enriched organoids [3]; Dose 0.40 uM) | Dose.FC.LYZ.NS (log 2 fold change) (ISC-enriched organoids [3]; Dose 0.40 uM) | Z.LYZ.NS (standard z score) (ISC-enriched organoids [3]; Dose 2.00 uM) | Dose.FC.LYZ.NS (log 2 fold change) (ISC-enriched organoids [3]; Dose 2.00 uM) | Z.LYZ.NS (standard z score) (ISC-enriched organoids [3]; Dose 10.00 uM) | Dose.FC.LYZ.NS (log 2 fold change) (ISC-enriched organoids [3]; Dose 10.00 uM)
Cc1cc(NC(=O)Nc2ccc(N(C)C)cc2)c2cc(F)cc(F)c2n1 [SB408124] | 0.978 | 0.410 | 0.799 | 0.334 | 0.869 | 0.364 | 0.216 | 0.091 | 0.198 | 0.193 | 0.082 | −0.148 | 1.494 | 0.172 | 1.168 | 0.134 | 0.730 | 0.084 | −0.607 | −0.070
O=C1NC(=O)C(c2ccccc2[N+](=O)[O-])=C1Nc1ccc(O)c(Cl)c1 [SB415286] | 0.527 | 0.221 | −0.011 | −0.004 | −0.231 | −0.097 | 0.293 | 0.123 | 0.159 | −0.008 | −0.053 | −0.042 | 1.262 | 0.145 | 0.101 | 0.012 | 1.024 | 0.118 | −0.136 | −0.016
O=C(Nc1ccccc1Br)N[C@@H]1CCN(c2ccc(C(F)(F)F)cn2)C1 [SB705498] | 0.318 | 0.133 | −0.102 | −0.043 | −0.009 | −0.004 | −0.089 | −0.037 | 0.094 | 0.023 | −0.030 | −0.023 | 0.642 | 0.074 | −0.433 | −0.050 | −0.008 | −0.001 | −0.154 | −0.018
O=S(=O)(c1ccccc1)c1cnc2c(N3CCNCC3)cccc2c1 [SB742457] | −0.693 | −0.290 | −0.300 | −0.126 | −0.423 | −0.177 | −0.702 | −0.294 | −0.055 | −0.029 | −0.003 | −0.006 | 0.108 | 0.012 | −0.537 | −0.062 | 0.598 | 0.069 | 0.115 | 0.013
Cc1ccc(C(=O)N(CCCN)[C@@H](c2oc3cc(Cl)ccc3c(=O)c2Cc2ccccc2)C(C)C)cc1 [SB743921] | −1.159 | −0.485 | −1.855 | −0.777 | −1.158 | −0.485 | −1.294 | −0.542 | −0.321 | −0.329 | −0.340 | −0.350 | −2.017 | −0.232 | −2.148 | −0.247 | −2.297 | −0.264 | −2.068 | −0.238
O=C(NNc1nc2cc(F)ccc2n2cccc12)c1cnccn1 [SC144] | 0.381 | 0.160 | 0.309 | 0.129 | −0.613 | −0.257 | −2.113 | −0.885 | 0.098 | 0.014 | −0.131 | −0.211 | 0.582 | 0.067 | −0.112 | −0.013 | −0.220 | −0.025 | −1.355 | −0.156
Cc1cc(Nc2ccc(NC(=O)c3ccc(Nc4ccnc5ccccc45)cc3)cc2)nc(N)n1 [SGI-1027] | 0.583 | 0.244 | 0.712 | 0.298 | 0.412 | 0.172 | 0.125 | 0.052 | 0.060 | 0.145 | 0.094 | 0.018 | 0.528 | 0.061 | 0.735 | 0.084 | 1.123 | 0.129 | −0.046 | −0.005
CN1CCC(CNc2ccc3ncc(-c4cccc(OC(F)(F)F)c4)n3n2)CC1 [SGI-1776free base] | 0.407 | 0.170 | 0.665 | 0.278 | 0.506 | 0.212 | −2.468 | −1.033 | 0.159 | 0.088 | 0.011 | −0.317 | 1.013 | 0.116 | 0.362 | 0.042 | 0.108 | 0.012 | −1.784 | −0.205

Reference: patent US20230398130A1, “METHODS AND COMPOSITIONS FOR DIFFERENTIATING STEM CELLS” (Massachusetts Institute of Technology, priority 2020, published 2023)
